We go through three molecules from patent US10751387B2, “Pharmacological therapy for neuronopathic Gaucher disease” (priority 2016, dated 2020).

Values joined by “and” are separate entries in the source; they are usually repeats but may differ in a detail not shown here. Equal entries are not always repeated.

The subject of series [1] is 4L;C* mice. Nature of the series: Gait analysis in nGD mouse model.
Description: Progression of the neurobehavioural phenotype was assessed by gait analysis to determine sensorimotor function (77,78). Mice were trained to walk through a narrow alley leading into their home-cage. Once trained, paper was placed along the alley floor and the hind paws of each mouse were brushed with nontoxic paint. The mice were then placed at the beginning of the alley. As they walked into their home-cage they left their paw prints on the paper underneath. Stride length and width were determined by measuring the distance between hind paw prints. The 4L;C* and control mice, untreated and non-4L;C* littermates were tested for gait at 30 and 40 days of age.
Series [2] relates to Ryr3. Kind of series: Immunoblot of Ryr3 in CBE-N2a cells. The class given is cell-based, mouse. Conditions: dantrolene 12.5 μM, untreated 47%. The procedure: (§1) N2a cells were maintained in DMEM/10% FBS (Gibco) medium. Neuronal differentiation of N2a was carried out in the differentiation medium containing 0.5% FBS, 10 μM retinoic acid, 50 ng/ml GDNF (Alomore lab) and 1 mM dbcAMP in DMEM for 3 days (37). The differentiated N2a cells were treated with 2 mM CBE for 5 days in the differentiation medium. […]. The medium with the reagents was changed every 2 days. The differentiation status of the neuronal cells was confirmed by anti-Map2 (mature neuron) or anti-Nestin (undifferentiated neuronal cells) antibody staining. Cell viability after each drug treatment was measured by CellTiter-Fluoirm Cell Viability assay (Promega). […]. The cells were from same passage and treated at the same time for all the experiments.
Half of mice brain (sagittal cut) tissues were homogenized in M-PER Mammalian Protein Extraction Reagent and subjected to electrophoresis. Ryr proteins (−500 kD) in tissues lysate were separated on 3-8% NuPAGE gel running at 90V for 12 h at 4° C. in acetate buffer. […] LC3, CAMK IV and calmodulin were separated on 16% Tris-glycine gel (Novex) and detected by anti-LC3 (1:1000), anti-CAMK IV (1:500) or anti-CAM (1:1000), respectively. The signals were detected with either ECL detection reagent or AP Conjugate Substrate Kit according to manufacturer's instructions. Band intensities on immunoblots were quantitated by Image J (NIH, Baltimore, Va.).
Background: In western blotting, separated proteins are transferred to a membrane and probed.

In series [3] the test system is Ryr1 and Ryr3. Conditions: reference 58; cited from earlier work.
Series [4] concerns Ryr3. Kind of series: Immunoblot of Ryr3 in 4L;C* cerebrum. The class given is in vivo, mouse. Conditions: 44 days of age, untreated 9%. The procedure: (§2) Half of mice brain (sagittal cut) tissues were homogenized in M-PER Mammalian Protein Extraction Reagent and subjected to electrophoresis. Ryr proteins (−500 kD) in tissues lysate were separated on 3-8% NuPAGE gel running at 90V for 12 h at 4° C. in acetate buffer. […] was resolved on 4-12% Bis-Tris gel. The proteins were transferred to PVDF membrane using iBlot 2 gel transfer device following manufacturer's instructions. The blots were incubated with anti-mouse Ryr3 monoclonal antibody (1/250) or anti-13-actin (1:5000) overnight at 4° C. in 1.5% BSA/1.5% milk/PBS buffer. LC3, CAMK IV and calmodulin were separated on 16% Tris-glycine gel (Novex) and detected by anti-LC3 (1:1000), anti-CAMK IV (1:500) or anti-CAM (1:1000), respectively. The signals were detected with either ECL detection reagent or AP Conjugate Substrate Kit according to manufacturer's instructions. Band intensities on immunoblots were quantitated by Image J (NIH, Baltimore, Va.).

The nature of series [5]: Body and organ weights of treated mice. The class given is in vivo, mouse. Conditions: IP 10 mg/kg three days per week.
Series [6] relates to 4L;C* mice. Kind of series: Survival / life span in nGD mouse model. Conditions: IP 10 mg/kg three days per week.
Description: The data are presented as mean±SEM and were analysed by Student's t-test or one-way ANOVA with post-hoc Tukey test using GraphPad Prism 6. The level of significance was set at P<0.05. Survival analysis was performed using Kaplan-Meier and the Mantel-Cox tests.
The subject of series [7] is CAMK IV. Nature of the series: Immunoblot of CAMK IV in 4L;C* cerebrum. The class given is in vivo, mouse. The arrangement: reference not given here. Conditions: untreated 61% of WT level. The procedure: as §2
Series [8] deals with CBE-N2a cells. Kind of series: Substrate (GC, GS) levels in nGD cell model (CBE-N2a) by ESI-LC-MS/MS. The class given is cell-based, mouse. Conditions: 5 days. The procedure:
as §1
(§3) Glycosphingolipids in mouse brains and N2a cells were extracted with chloroform and methanol as described (83). GC and GS content in the extracts was analysed by ESI-LC-MS/MS using a Waters Quattro Micro API triple quadrupole mass spectrometer (Milford, Mass.) interfaced with Acquity UPLC system as described (35). The concentration of GC and GS in the brain was normalized to mg tissue weight and in the cells was normalized by mg protein in the cell lysate.

Series [9] has as its system CBE-N2a cells. Nature of the series: Cytosolic calcium level measurement with Fura-2 after caffeine. The class given is cell-based, mouse. Conditions: CBE-N2a cells vs untreated; dantrolene 12.5 μM, ryanodine 10 μM, G6 0.8 μM, 5 days; caffeine 10 mM.
Description: (§4) N2a cells were maintained in DMEM/10% FBS (Gibco) medium. Neuronal differentiation of N2a was carried out in the differentiation medium containing 0.5% FBS, 10 μM retinoic acid, 50 ng/ml GDNF (Alomore lab) and 1 mM dbcAMP in DMEM for 3 days (37). The differentiated N2a cells were treated with 2 mM CBE for 5 days in the differentiation medium. […] The medium with the reagents was changed every 2 days. […] Cell viability after each drug treatment was measured by CellTiter-Fluoirm Cell Viability assay (Promega). […] The cells were from same passage and treated at the same time for all the experiments.
Intracellular calcium levels were determined using the Fura-2 QBT Calcium Kit (Molecular Devices, Sunnyvale, Calif.) on 96 well plates by M5 SpectraMax plate reader (Molecular Devices). N2a cells were seeded in each well (20,000/well) with differentiation medium (0.5% FBS, DMEM, 10 AM retinoic acid, 1 mM dbcAMP) for 72 h (37). […] The cell medium was replaced every two days. The treated cells were incubated with Fura-2 QBT dye at 37 C for 1 h for Fura-2 QBT uptake (Fura2 QBT® calcium kit protocol, Molecular Devices). Caffeine (10 mM) was used as an ER calcium efflux stimulant in the assay (38,39). The plate reader setting was 340/380 nm (excitation) and 510 nm (emission). Baseline calcium levels were measured prior to caffeine addition (−30 s). Cytosolic calcium levels were recorded every 30 s for duration of 300 s after addition of caffeine. Relative cytosolic calcium levels were determined with the values at 300 s endpoint minus Os baseline. Relative cytosolic calcium level [Fura-2 AF/F (340/380510 nm] for control or treated cells was calculated by Fura-2 fluorescence unit (FU) measured at 340 nm/510 nm (AF=RFU/340 at 300 s end point minus baseline RFU/340 at 0 s) divided by FU at 380 nm/510 nm (F=RFU/380 at 300 s-baseline RFU/380 at 0 s) (Fura2 QBT® calcium kit protocol, Molecular Devices) and normalized to protein level in cells. Data were collected and analysed by SoftMax Pro software (Molecular Devices) and graphical charts were generated by Graphpad Prism 6.0.
Series [10] has as its system ryanodine receptor. Conditions: vendor listing (Sigma); cited from earlier work.
Series [11] concerns CBE-N2a cells. Kind of series: Seahorse mitochondrial function assay (OCR) in cells. The class given is cell-based, mouse. Conditions: CBE-N2a cells vs untreated CBE-N2a; dantrolene 12.5 μM, G6 0.8 μM.
Description: as §4
Cell numbers were determined using a haemocytometer. Prior to mitochondrial function assay on XF96 Extracellular Flux Analyzers (Seahorse Biosciences), the cells in the wells of XF96 assay plates were washed by gently adding warm assay medium to the side of each well. […] The respiration parameters were calculated by subtracting the average respiration rates before and after the addition of the electron transport inhibitors: oligomycin, FCCP and antimycin A. The parameters include basal respiration (baseline respiration minus antimycin A post injection respiration), ATP production (baseline respiration minus oligomycin post injection respiration), and maximal respiratory (FCCP stimulated respiration minus antimycin A post injection respiration). […]
Series [12] relates to N2a cells. Kind of series: Substrate (GC, GS) levels in N2a cells by ESI-LC-MS/MS. It is filed as cell-based, mouse. Conditions: G6 0.8 μM, 5 days. The procedure: as §1, §3

As to `O=C1CN(/N=C/c2ccc(-c3ccc([N+](=O)[O-])cc3)o2)C(O)=N1` [Dantrolene], the Base stride width result in series [1] (IP 10 mg/kg three days per week from postnatal day 5, 30 and 40 days of age, vs untreated) is “significantly reduced”. The “Stride length increase compared to untreated 4L;C* mice” value in [1] (IP 10 mg/kg three days per week, 40 days of age) turned out to be 30%. Further, in series [2], the “Ryr3 protein level, % of WT level” value is given as 76%. In addition, the Ryr specificity result in series [3] is “specific to Ryr1 and Ryr3”. Besides, in [4], the “Ryr3 protein level, % of WT” value was determined as 77%. In [5], the “Body or organ weights” value is reported as “did not affect”. Besides, in series [6] (10 mg/kg), the “Life span / survival prolonged compared to untreated 4L;C* mice” value was 12.3% and 12.7%. For the same molecule, the Median survival days in series [6] (untreated 44 days) is listed as 50 days. In addition, in series [7], the “CAMK IV expression increase” value is 28%. In series [8] (CBE-N2a cells, dantrolene 12.5 μM, G6 0.8 μM), the “GC and GS levels” value is recorded as “did not affect”. In series [9], the “Cytosolic calcium level above baseline after caffeine [Fura-2 ΔF/F]” value is “significantly reduced”.
For the molecule Ryanodine, the “Ryanodine receptor antagonist concentration” value in [10] was more than 10 µM. The “Cytosolic calcium level above baseline after caffeine [Fura-2 ΔF/F]” value in series [9] is given as “significant reduction”.
With `CC(C)(NC(=O)OC1CN2CCC1CC2)c1cccc(-c2ccc(F)cc2)c1` (stereo not drawn) [G6], the “Oxygen Consumption Rate (OCR: ATP production, basal respiration, maximal respiration)” value in [11] is given as “significant increases”. In addition, the “GC reduction to % of untreated levels” value was determined as 7% in series [12] and 26% in series [8] (CBE-N2a cells, G6 0.8 μM). Moreover, the GS level result in series [8] (CBE-N2a cells vs untreated) is “significantly decreased”. Further, the “Cytosolic calcium level above baseline after caffeine [Fura-2 ΔF/F]” value in [9] was “significantly lower”.
